The source of these data is ChEMBL document CHEMBL4390646, “A fragment-based approach towards the discovery of N-substituted tropinones as inhibitors of Mycobacterium tuberculosis transcriptional regulator EthR2” (Eur J Med Chem, 2019).

Test [1] concerns Mycobacterium tuberculosis. As to the kind of experiment: Inhibition of EthR2 in Mycobacterium tuberculosis assessed as potentiation of ETH bioactivation up to 30 uM using 0.1 ug/ml ETH.
Test [2] can be described thus: Inhibition of recombinant Mycobacterium tuberculosis EthR2 expressed in golden hamster BHK21 cells assessed as reduction in EthR2 and DNA interaction measured after 48 hrs by p-nitrophenyl phosphate based SEAP reporter gene assay. It counts as cell-based.
In test [3] the test system is Mycobacterium tuberculosis. The experiment in a line: Binding affinity to recombinant Mycobacterium tuberculosis EthR2 assessed as change in melting temperature at 20 uM by SYPRO Orange dye based fluorescence thermal shift assay.
For test [4], the system named is Mycobacterium tuberculosis. As to the kind of experiment: Binding affinity to recombinant Mycobacterium tuberculosis EthR2 assessed as change in melting temperature at 1 mM by Nano Orange dye based fluorescence thermal shift assay.
For test [5], the target named is HTH-type transcriptional regulator EthR (Mycobacterium tuberculosis) (UniProt P9WMC1). As to the kind of experiment: Binding affinity to Mycobacterium tuberculosis EthR at 30 uM by mammalian reporter assay. (In general: Reporter assays use an easily measured gene product as a stand-in for the process of interest.)

The source made the active and inactive calls. The rule behind the calls is not given here.

Sequence of HTH-type transcriptional regulator EthR (Mycobacterium tuberculosis) (P9WMC1 whole entry): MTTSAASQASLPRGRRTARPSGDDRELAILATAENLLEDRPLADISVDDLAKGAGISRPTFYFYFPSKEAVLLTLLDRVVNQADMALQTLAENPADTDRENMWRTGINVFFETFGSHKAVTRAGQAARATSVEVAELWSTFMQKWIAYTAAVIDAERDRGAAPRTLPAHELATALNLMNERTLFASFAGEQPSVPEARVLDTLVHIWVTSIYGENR

For the compound `O=C1CC2CCC(C1)N2CCc1ccccc1`, the result in test [1] was inactive. The pIC50 in test [2] turned out to be 5. Also, in test [3], the ΔTm stood at 0.1 °C.

Consider `CC(Cc1ccc(Cl)cc1)N1C2CCC1CC(=O)C2` (stereo not drawn), for which the ΔTm in test [3] amounted to 0.1 °C.

`O=C1CC2CCC(C1)N2CCc1ccncc1`: the result in test [1] was inactive. Further, in test [3], the ΔTm is 0 °C.

As for `O=C1CC2CCC(C1)N2C(=O)Cc1ccc(Cl)cc1`, in test [3], the ΔTm was -0.1 °C.

In the case of `FC(F)=C1CC2CCC(C1)N2CCc1ccc(Cl)cc1`, in test [2], the negative logarithm of the IC50 (pIC50) is given as below 4.8. Also, the ΔTm in test [3] was 0.6 °C.

As for `O=C1C2CCC1CN(CCc1ccc(Cl)cc1)C2`, the ΔTm in test [3] is 0.1 °C.

As for `O=C1CC2CCC(C1)N2CCc1cccc(C(F)(F)F)c1`, the thermal shift (ΔTm) in test [3] was -0.1 °C.

Regarding `CCCNC(=O)Nc1cccc(C)n1`, the negative-log IC50 (pIC50) in test [2] is below 4. For the same compound, the shift in melting temperature (ΔTm) in test [4] was found to be 2.2 °C.

As for `Clc1ccc(CCN2C3CCC2CC2(C3)OCCO2)cc1`, in test [2], the pIC50 is below 4.8. In addition, the ΔTm in test [3] amounted to 0.1 °C.

As for `O=C1CC2CCC(C1)N2CCc1ccccc1C(F)(F)F`, the ΔTm in test [3] turned out to be 0.3 °C.

Take `N=C(N)Nc1nc2ccccc2s1`: in test [2], the pIC50 is below 4. Also, the ΔTm in test [4] was found to be 2.8 °C.

With `Cc1ccc(CCN2C3CCC2CC(=O)C3)cc1`, the result in test [1] was inactive. The negative logarithm of the IC50 (pIC50) in test [2] is recorded as 5.8. Further, the ΔTm in test [3] stood at 0.6 °C.

In the case of `CC(C)Sc1nc2[nH]cnc(N)c-2n1`, the negative logarithm of the IC50 (pIC50) in test [2] turned out to be 5.1. Moreover, the ΔTm in test [4] stood at 2.5 °C.

With `O=C1CC2CCC(C1)N2CCc1ccc(C(F)(F)F)cc1`, in test [1], the outcome was inactive. In test [2], the pIC50 is given as 6.7. Moreover, the ΔTm in test [3] turned out to be 1.8 °C.

On to `O=C1CC2CCC(C1)N2CCc1ccc(Cl)cc1`, for which the result in test [1] and in test [5] was inactive. Also, the negative logarithm of the IC50 (pIC50) in test [2] turned out to be 6. The shift in melting temperature (ΔTm) came out at 0.6 °C in test [3] and 3.4 °C in test [4].

Consider `O=C1CC2CCCC(C1)N2CCc1ccc(Cl)cc1`, for which the outcome in test [1] was inactive. Moreover, the pIC50 in test [2] stood at 5.8. Moreover, in test [3], the ΔTm turned out to be 0.6 °C.

For `O=C1CC2CCC(C1)N2CCc1ccc([N+](=O)[O-])cc1`, in test [3], the shift in melting temperature (ΔTm) was -0.2 °C.

Consider `Clc1cccc(CN2CCNCC2)c1`, for which the pIC50 in test [2] stood at 5.5. Moreover, the ΔTm in test [4] came to 3.1 °C.

With `O=C1CC2CCC(C1)N2Cc1ccc(Cl)cc1`, the shift in melting temperature (ΔTm) in test [3] turned out to be 0 °C.

For `COC1(OC)CC2CCC(C1)N2CCc1ccc(Cl)cc1`, the negative-log IC50 (pIC50) in test [2] is on record as below 4.8. Also, in test [3], the ΔTm worked out at 0.2 °C.

As for `O=C1CC2CCC(C1)N2CCc1ccc(Br)cc1`, the result in test [1] was inactive. In test [2], the pIC50 amounted to 6.1. In addition, the shift in melting temperature (ΔTm) in test [3] amounted to 1 °C.

As for `O=C1CC2CCC(C1)N2CCc1ccc(Cl)c(Cl)c1`, in test [1], the outcome was inactive. Moreover, in test [2], the negative logarithm of the IC50 (pIC50) stood at 6. The thermal shift (ΔTm) in test [3] came to 1 °C.

For `O=C1C2CCCC1CN(CCc1ccc(Cl)cc1)C2`, in test [3], the ΔTm was -0.1 °C.

With `O=C1CC2CCC(C1)N2CCc1ccc(Cl)cc1Cl`, the negative-log IC50 (pIC50) in test [2] came out at 5.7. The shift in melting temperature (ΔTm) in test [3] stood at 0.2 °C.

On to `COc1ccc(CCN2C3CCC2CC(=O)C3)cc1`, for which, in test [3], the ΔTm was determined as 0.3 °C.

Take `O=C1CC2CCC(C1)N2CCc1ccc(F)cc1`: the outcome in test [1] was inactive. In addition, the pIC50 in test [2] came to 5.6. The shift in melting temperature (ΔTm) in test [3] amounted to 0.4 °C.

What is called pIC50 is −log10 of the IC50, conventionally taken in molar units. Usually ΔTm stands for the change in melting temperature against a reference sample.
